Here are results for 42 compounds from patent publication US20220334101A1, “MODULATING EXTRACELLULAR MATRIX MOVEMENT” (Helmholtz Zentrum Muenchen - Deutsches Forschungszentrum …, priority 2019, published 2022).

Structures can show the parent of a compound that is named as a salt.

Test [1] deals with peritoneum. Description: ECM (matrix) movement into peritoneal wounds after laparotomy injury, NHS-FITC matrix labelling. It is filed as in vivo, mouse. To be noted: for ECM (matrix) movement, peritoneum: inhibitors 10 μM i.p. 2 hours before surgery, organs harvested after 24 h, FITC in wound lysates.
Test [2] has as its system skin-fascia explants. Description: Scar-in-a-dish (SCAD) ex vivo skin-fascia explant assay, screening of Prestwick chemical library. It is filed as cell-based, mouse. To be noted: molecules of table 1 named as inhibitors of ECM movement. An excerpt:
Post born Day 0 (P0) neonates of C57BL/6J wild type mouse were first sacrificed by decapitation. Then dorsal back skin was isolated to make 2 mm full thickness biopsies (0 2 mm, Stiefel) that included the epidermis, dermis and deep subcutaneous fascia layers. The whole skin tissue explant system is termed as scar-in-a-dish (SCAD) assay (Patent Application no. PLA17A13). The SCAD tissue was maintained in DMEM/F12 cell culture medium (Life Technologies) supplemented with 10% FBS (Life Technologies), 1% non-essential amino acid (Thermo Fisher), 1% Glutamax (Thermo Fisher), 1% penicillin and streptomycin (Thermo Fisher) in a 37° C. incubator supplied with […] and 5% CO2. Medium was changed every other day until day 5 when SCADs were collected and fixed for histology analysis. To be noticed, the excised skin was submerged […] in culture media, which confined the scar-prone fibroblasts to the explant and discouraged their adherence to the tissue culture plate.
The PCL provides an additional advantage as all chemicals are of stable physicochemical properties, show a high range of chemical diversity, and are with known bioavailability and safety data in humans. All these information helps to reduce the probability of screening low-quality hits and save the costs of preliminary screening process.
In order to accommodate to medium scale screening approach, the Inventors adapted the SCAD explant system into 96-well plate (Falcon) formats, with each well contained one biopsy. […] Plate and liquid handling were performed using a high-throughput screening platform system composed of a Sciclone G3 Liquid Handler from PerkinElmer (Waltham, Mass., USA). On Day 0 tissues were treated either with the respective compound (1 mM stock solution) dissolved in 100% dimethyl sulfoxide (DMSO, Carl Roth) or DMSO alone. 0.5 μl of compounds/DMSO were transferred with a 96-array head to 200 μl DMEM/F12 medium per well to keep the final DMSO concentrations at […]. Tissues were then incubated (37° C.; 5% CO2) for 72 h prior to a second round of compound treatment, which was performed by exchanging cell culture medium per well and transferring […] of compounds/DMSO into the fresh medium. After an incubation time of another 48 h (37° C.; 5% CO2) the tissues were harvested and fixed for histological processing and imaging.
Briefly, the Inventors excised 2-mm full thickness skin biopsies that included epidermis, dermis, and deep subcutaneous fascia layers from mouse backs (see Methods). Skin-fascia explants were submerged fascia-side up in culture media, to confine scar-prone fibroblasts to the explant and discourage their adherence to the tissue culture plate.
The Prestwick library has selected a diverse array of chemicals with strong physicochemical properties, with known bioavailability and clinical safety data. The library is an ideal place to start screening as it covers all major therapeutic chemical classes such as central nervous system, cardiovascular system, metabolism, and infectious diseases.

Test [3] relates to liver. The test is described as follows: ECM (matrix) movement into liver wounds after electroporation injury, NHS-FITC matrix labelling. Conditions: filter paper with 100 nM solution on liver surface for 5 minutes, absence of wounds. The format is in vivo, mouse.

`O=C1c2ccc([N+](=O)[O-])cc2N=C2N(c3ccccc3)CC[C@@]12O` [(S)-nitro-Blebbistatin]: the “ECM (matrix) movement, peritoneum” value in test [1] is reported as “decreased”. Further, the “organ specificity of the effect on matrix currents” value in test [1] (livers and peritoneas compared) was “effected matrix currents of only one organ”.

For `C=C1/C(=C\C=C2/CCC[C@]3(C)[C@@H]([C@H](C)CCCC(C)C)CC[C@@H]23)C[C@@H](O)C[C@@H]1O` [Alfacalcidol], the “phenotype as inhibitor of ECM movement” value in test [2] is “anti-fibrotic phenotype”.

`CCC(C)(C)c1ccc(CC(C)CN2C[C@@H](C)O[C@@H](C)C2)cc1` (some centres unmarked) [Amorolfine hydrochloride]: the “phenotype as inhibitor of ECM movement” value in test [2] is “anti-fibrotic phenotype”.

In the case of `CN1CCCC(n2nc(Cc3ccc(Cl)cc3)c3ccccc3c2=O)CC1` (centres unmarked) [Azelastine HCl], the “phenotype as inhibitor of ECM movement” value in test [2] is “anti-fibrotic phenotype”.

Consider `CC(C)C[C@H](NC(=O)[C@@H](O)[C@H](N)Cc1ccccc1)C(=O)O` [BESTATIN], for which the “ECM (matrix) movement, peritoneum” value in test [1] is “decreased”.

On to `CC1(C)S[C@@H]2[C@H](NC(=O)Cc3ccccc3)C(=O)N2[C@H]1C(=O)O.CC1(C)S[C@@H]2[C@H](NC(=O)Cc3ccccc3)C(=O)N2[C@H]1C(=O)O.c1ccc(CNCCNCc2ccccc2)cc1` [Benzathine benzylpenicillin], for which the “phenotype as inhibitor of ECM movement” value in test [2] is on record as “anti-fibrotic phenotype”.

With `C[N+](C)(CCOc1ccccc1)Cc1ccccc1.O=C([O-])c1cc2ccccc2cc1O` [Bephenium hydroxynaphthoate], the “phenotype as inhibitor of ECM movement” value in test [2] is “anti-fibrotic phenotype”.

For `CC(C)/N=c1\cc2n(-c3ccc(Cl)cc3)c3ccccc3nc-2cc1Nc1ccc(Cl)cc1` [Clofazimine], the “phenotype as inhibitor of ECM movement” value in test [2] is “anti-fibrotic phenotype”.

Turning to `CC(C)N(CCC(C(N)=O)(c1ccccc1)c1ccccn1)C(C)C` (centres unmarked) [Disopyramide], the “phenotype as inhibitor of ECM movement” value in test [2] is recorded as “anti-fibrotic phenotype”.

On to `O=c1[nH]c2ccccc2n1CCCN1CCC(n2c(=O)[nH]c3cc(Cl)ccc32)CC1` [Domperidone], for which the “phenotype as inhibitor of ECM movement” value in test [2] is given as “anti-fibrotic phenotype”.

As for `CCN1CC(CCN2CCOCC2)C(c2ccccc2)(c2ccccc2)C1=O` (centres unmarked) [Doxapram hydrochloride], in test [2], the “phenotype as inhibitor of ECM movement” value is on record as “anti-fibrotic phenotype”.

On to `COc1cccc2c1C(=O)c1c(O)c3c(c(O)c1C2=O)C[C@@](O)(C(=O)CO)C[C@@H]3O[C@H]1C[C@H](N)[C@H](O)[C@H](C)O1` [Doxorubicin hydrochloride], for which the “phenotype as inhibitor of ECM movement” value in test [2] was “anti-fibrotic phenotype”.

In the case of `CC[C@]12CCCN3CCc4c(n(c5ccccc45)C(=O)C1)[C@@H]32` [Eburnamonine (−)], the “phenotype as inhibitor of ECM movement” value in test [2] was “anti-fibrotic phenotype”.

Turning to `CC(O)(P(=O)(O)O)P(=O)(O)O` [Etidronic acid, disodium salt], the “phenotype as inhibitor of ECM movement” value in test [2] was “anti-fibrotic phenotype”.

As to `NC(N)=Nc1nc(CSCCC(N)=NS(N)(=O)=O)cs1` [Famotidine], the “phenotype as inhibitor of ECM movement” value in test [2] is given as “anti-fibrotic phenotype”.

`C[C@@H]1C[C@H]2[C@@H]3C[C@H](F)C4=CC(=O)C=C[C@]4(C)[C@@]3(F)[C@@H](O)C[C@]2(C)[C@@]1(O)C(=O)COC(=O)C(C)(C)C` [Flumethasone pivalate]: the “phenotype as inhibitor of ECM movement” value in test [2] was “anti-fibrotic phenotype”.

`CC1(C)O[C@@H]2C[C@H]3[C@@H]4C[C@H](F)C5=CC(=O)C=C[C@]5(C)[C@@]4(F)[C@@H](O)C[C@]3(C)[C@]2(C(=O)CO)O1` [Fluocinolone acetonide]: the “phenotype as inhibitor of ECM movement” value in test [2] is on record as “anti-fibrotic phenotype”.

For `CCC(=O)O[C@]1(C(=O)SCF)[C@H](C)C[C@H]2[C@@H]3C[C@H](F)C4=CC(=O)C=C[C@]4(C)[C@@]3(F)[C@@H](O)C[C@@]21C` [Fluticasone propionate], in test [2], the “phenotype as inhibitor of ECM movement” value is on record as “anti-fibrotic phenotype”.

Regarding `CCCCN(CCCC)CCC(O)c1cc2c(Cl)cc(Cl)cc2c2cc(C(F)(F)F)ccc12` (centres unmarked) [Halofantrine hydrochloride], the “phenotype as inhibitor of ECM movement” value in test [2] is listed as “anti-fibrotic phenotype”.

As to `Clc1cc(Cl)c(OCC#CI)cc1Cl` [Haloprogin], the “phenotype as inhibitor of ECM movement” value in test [2] is on record as “anti-fibrotic phenotype”.

On to `CC(=O)N(CC(O)CN(C(C)=O)c1c(I)c(C(=O)NCC(O)CO)c(I)c(C(=O)NCC(O)CO)c1I)c1c(I)c(C(=O)NCC(O)CO)c(I)c(C(=O)NCC(O)CO)c1I` (centres unmarked) [Iodixanol, lodixanol], for which, in test [2], the “phenotype as inhibitor of ECM movement” value was “anti-fibrotic phenotype”.

Take `O=C(c1ccccc1)c1ccc2n1CCC2C(=O)O` (centres unmarked) [Ketorolac tromethamine]: in test [2], the “phenotype as inhibitor of ECM movement” value is listed as “anti-fibrotic phenotype”.

Regarding `CCCCC/C=C\C[C@@H](O)/C=C/C=C/C=C\[C@@H](O)CCCC(=O)O` [LTB4], in test [3], the “recruitment / deposition of fluid matrix after local application” value was “forms new deposits of matrix”.

Take `C[C@H](N)[C@H](O)c1ccc(O)c(O)c1` [Levonordefrin]: the “phenotype as inhibitor of ECM movement” value in test [2] is listed as “anti-fibrotic phenotype”.

Turning to `CCCCC[C@H](O)/C=C/C=C\C=C\C=C\[C@@H](O)[C@@H](O)CCCC(=O)O` [Lipoxin A4], the “recruitment / deposition of fluid matrix after local application” value in test [3] is on record as “led to recruitment of fluid matrix”; in test [3] (listed as Lipoxin), “can be directed with local application”.

Take `CC(=O)[C@H]1CC[C@H]2[C@@H]3C[C@H](C)C4=CC(=O)CC[C@]4(C)[C@H]3[C@@H](O)C[C@]12C` [Medrysone]: in test [2], the “phenotype as inhibitor of ECM movement” value was “anti-fibrotic phenotype”.

In the case of `COc1ccc2c(c1)N(C[C@H](C)CN(C)C)c1ccccc1S2.O=C(O)/C=C\C(=O)O` [Methotrimeprazine maleat salt], in test [2], the “phenotype as inhibitor of ECM movement” value is “anti-fibrotic phenotype”.

Turning to `C[C@H]1NC(=O)NC1=O` [Methylhydantoin-5-(D)], the “phenotype as inhibitor of ECM movement” value in test [2] was “anti-fibrotic phenotype”.

For the compound `CC[C@H](C)C(=O)O[C@H]1CCC=C2C=C[C@H](C)[C@H](CC[C@@H]3C[C@@H](O)CC(=O)O3)[C@H]21` [Mevastatin], in test [2], the “phenotype as inhibitor of ECM movement” value was “anti-fibrotic phenotype”.

With `O=C1CC[C@@]2(O)[C@H]3Cc4ccc(O)c5c4[C@@]2(CCN3CC2CC2)[C@H]1O5` [Naltrexone hydrochloride dehydrate, Naltrexone hydrochloride dihydrate], the “phenotype as inhibitor of ECM movement” value in test [2] is reported as “anti-fibrotic phenotype”.

Regarding `CN1CCOC(c2ccccc2)c2ccccc2C1` (centres unmarked) [Nefopam hydrochloride], in test [2], the “phenotype as inhibitor of ECM movement” value is recorded as “anti-fibrotic phenotype”.

As for `C#C[C@]1(O)CC[C@H]2[C@@H]3CCC4=C(CCC(=O)C4)[C@H]3CC[C@@]21C` [Norethynodrel], the “phenotype as inhibitor of ECM movement” value in test [2] is given as “anti-fibrotic phenotype”.

Turning to `CCN(CC)CCc1nc(-c2ccccc2)no1.O=C(O)CC(O)(CC(=O)O)C(=O)O` [Oxalamine citrate salt], in test [2], the “phenotype as inhibitor of ECM movement” value was “anti-fibrotic phenotype”.

For `CCN1CCN(C(=O)N[C@@H](C(=O)N[C@@H]2C(=O)N3[C@@H]2SC(C)(C)[C@@H]3C(=O)O)c2ccccc2)C(=O)C1=O` [Piperacillin sodium salt], in test [2], the “phenotype as inhibitor of ECM movement” value is “anti-fibrotic phenotype”.

Turning to `CC(C)(C)C(=O)OCOC(=O)[C@@H]1N2C(=O)[C@@H](NC(=O)[C@H](N)c3ccccc3)[C@H]2SC1(C)C` [Pivampicillin], in test [2], the “phenotype as inhibitor of ECM movement” value is on record as “anti-fibrotic phenotype”.

For `CCCOc1cc(N)ccc1C(=O)OCCN(CC)CC` [Propoxycaine hydrochloride], the “phenotype as inhibitor of ECM movement” value in test [2] was “anti-fibrotic phenotype”.

With `NC(=O)c1cnccn1` [Pyrazinamide], the “phenotype as inhibitor of ECM movement” value in test [2] is given as “anti-fibrotic phenotype”.

`CCOc1cc(CC(=O)N[C@@H](CC(C)C)c2ccccc2N2CCCCC2)ccc1C(=O)O` [Repaglinide]: in test [2], the “phenotype as inhibitor of ECM movement” value is on record as “anti-fibrotic phenotype”.

`COc1ccc(NS(=O)(=O)c2ccc(N)cc2)nn1` [Sulfamethoxypyridazine]: in test [2], the “phenotype as inhibitor of ECM movement” value is “anti-fibrotic phenotype”.

As to `Nc1ccc(S(=O)(=O)Nc2ccnn2-c2ccccc2)cc1` [Sulfaphenazole], the “phenotype as inhibitor of ECM movement” value in test [2] is given as “anti-fibrotic phenotype”.

With `Nc1ccc(S(=O)(=O)Nc2cnc3ccccc3n2)cc1` [Sulfaquinoxaline sodium salt], the “phenotype as inhibitor of ECM movement” value in test [2] is “anti-fibrotic phenotype”.

For the compound `[H]/N=C(/NCCCCC)N/N=C/c1c[nH]c2ccc(OC)cc12` [Tegaserod maleate], the “phenotype as inhibitor of ECM movement” value in test [2] is listed as “anti-fibrotic phenotype”.
